Test results from paper PMC6254164, “Synthesis of Novel Hybrid Molecules from Precursors With Known Antiparasitic Activity” (Molecules, 2009).
Like-named read-outs stand apart in the source and are kept apart here. Blank lines part the entries; values can stand above or below the compound they belong to.

How the values were obtained:
[1] = system: Entamoeba histolytica HK-9 strain; test: In vitro antiamoebic activity (parasite count, trypan blue); type: cell-based; settings: 72 hours at 36-37 °C, six determinations, read-out: Mean IC50 ± SD, Entamoeba histolytica
Procedure: (§1) Entamoeba histolytica HK-9 strain (ATCC number 30015) was cultured in LYI-S-2 medium supplemented with antibiotics. Giardia intestinalis WB strain (ATCC number 30957) was grown in a modified YI-S medium with antibiotics. Both parasites were cultivated in 15-mL screw-capped borosilicate glass tubes containing 13 mL medium. The tubes were incubated on a 15º horizontal slant at (36-37) ºC. Culture maintenance and subculturing was performed as described Entamoeba and Giardia were harvested from confluent cultures by chilling of the tubes on ice for 5-10 min. to detach cells, followed by centrifugation at 800 x g for 5 min.
(§2) Two milligrams of a test compound or a mixture were dissolved in 10 µL of dimethyl sulfoxide (DMSO) and completed with 1 mL growth medium. The solutions were filter sterilized using 0.22 µm syringe filters and the appropriate volumes of the solutions were taken to prepare the concentrations of each compound or reference drug in 15-mL screw-capped borosilicate glass tubes. […] For the control mixtures of the precursor compounds, 1:1 molar ratios were prepared. Each tube was inoculated with 20,000 cells of the parasite under testing (Entamoeba or Giardia). Each compound or mixture was assayed in duplicate in each of three independent experiments. In each assay, the appropriate controls were performed, including the one without any compound or mixture and another with metronidazole as the positive control. The caps of Entamoeba and Giardia tubes were tightly screwed and wrapped with Parafilm. The tubes were incubated on a 15º horizontal slant at 36-37 °C for 72 hours.
(§3) The parasites in each tube were counted using the standard hemacytometer at the 10X objective. In each count, trypan blue was employed to distinguish live from dead parasites. To permit detachment of Entamoeba and Giardia, the tubes were placed on ice for few minutes and the parasites were then centrifuged at 1000 x g for 10 min. The supernatant was discarded and 1 mL fresh medium was added to each tube. The final suspension was prepared by mixing 25 µL of the parasite suspension in each tube with 100 µL of 0.4 % trypan blue in phosphate buffered saline (PBS). The 50% inhibitory concentration (IC50) was employed as a parameter for biological activity. The IC50 is the concentration of compounds which cuts the number of parasites to half that in the negative control (growth medium + DMSO + parasites).

[2] = system: Vero cells; test: Cytotoxicity assay, trypan blue exclusion; type: cell-based; settings: 48 hour incubation, six determinations, read-out: Mean IC50 ± SD, Vero cells
Procedure: (§4) The cytotoxicity of the hybrid compounds and the reference drug, metronidazole, was investigated on Hep-2 and Vero cells using the standard cytotoxicity assay and the trypan blue exclusion method. A cell suspension (10^5 cells/mL RPMI medium-10% inactivated foetal calf serum) was prepared from confluent cultures and 100 µL portions of the suspension were added to the wells of 96-well plates. The cells were incubated for 24 h at 37 °C and 5 % CO2 and the medium in each well was then replaced with fresh 150 µL medium. Solutions of the compounds or the reference drug were prepared and sterilized as described in “Antiamoebic and antigiardial activity” section above. Then, 150 µL-two fold serial dilutions of each of the compounds and the reference drug starting at a concentration of 2000 µg/mL in culture medium were prepared in the plates. After 48 hour incubation at 37 °C and 5 % CO2, the number of cells in each well was determined as follows: The medium in each well was gently replaced with 100 µL of 0.25% (w/v) trypsin-0.53 mM EDTA solution and the plates were incubated for 5 min. at 37 °C to allow cell detachment. Two-hundred microliters of trypan blue solution were added to each well and the plates were, then, placed on ice. The cells were counted in a hemacytometer at the 10X objective. Each compound was assayed in duplicate in each of three independent experiments. In each assay the negative controls (without any compound or reference drug) were included in duplicates.

[3] = system: Giardia intestinalis WB strain; test: In vitro antigiardial activity (parasite count, trypan blue); type: cell-based; settings: 72 hours at 36-37 °C, six determinations, read-out: Mean IC50 ± SD, Giardia intestinalis
Procedure: as §1, §2, §3

[4] = system: Hep-2 cells; test: cells; type: cell-based; settings: for IC50: 48 hour incubation, six determinations, read-out: Mean IC50 ± SD, Hep-2 cells
Procedure: as §4

[5] = Solubility in DMSO-aqueous medium (bioassay preparation); type: physicochemical
Procedure: The antiamoebic and antigiardial activities of the prepared hybrid molecules 8, 10-a, 12, their precursors, and 1:1 mixtures of these precursors were tested as described, with some modifications. […] Two milligrams of a test compound or a mixture were dissolved in 10 µL of dimethyl sulfoxide (DMSO) and completed with 1 mL growth medium. […] For each preparation, concentrations of 240, 120, 60, 30, 15, 7.5, 3.5, 1.7, 0.8, 0.4, 0.2, 0.1 µg/mL medium were prepared in a final volume of 15 mL to exclude air from the tube. For the control mixtures of the precursor compounds, 1:1 molar ratios were prepared. […] Each compound or mixture was assayed in duplicate in each of three independent experiments. In each assay, the appropriate controls were performed, including the one without any compound or mixture and another with metronidazole as the positive control. The caps of Entamoeba and Giardia tubes were tightly screwed and wrapped with Parafilm. The tubes were incubated on a 15º horizontal slant at 36-37 °C for 72 hours.

Compound: 3-(5-nitrofuran-2-yl)-N-[2-(5-nitroimidazol-1-yl)ethyl]acrylamide [Compound 8]
IC50 [1]: 5.32 ± 0.21 µM
IC50 [2]: 90.5 ± 7.83 µM
IC50 [3]: 5.56 ± 0.37 µM
IC50 [4]: 108 ± 8.02 µM

Compound: Clc1ccc2c(N3CCNCC3)ccnc2c1 [Compound 9, 7-Chloro-4-(piperazine-1-yl) quinoline, reference compound]
IC50 ([1]; Entamoeba histolytica, 72 h): 55.7 ± 5 µM
IC50 ([3]; Giardia duodenalis, 72 h): 67.5 ± 8.67 µM

Compound: O=C(/C=C/c1ccc([N+](=O)[O-])o1)N1CCN(c2ccnc3cc(Cl)ccc23)CC1 [Compound 10-a]
IC50 [1]: 140 ± 6.37 µM
IC50 ([1]; Entamoeba histolytica, 72 h): ~140 µM
IC50 ([2]; Chlorocebus sabaeus, Vero): 593 ± 8.71 µM
IC50 [3]: 145 ± 5.37 µM
IC50 ([3]; Giardia duodenalis, 72 h): ~140 µM
cytotoxicity at the lethal concentrations against the parasites ([4]; Hep-2 and Vero cells): non-cytotoxic
IC50 ([4]; Homo sapiens, HEp-2): 574 ± 7.77 µM

Compound: Cc1ncc([N+](=O)[O-])n1CCO [Metronidazole, metronidazole, reference compound]
IC50 ([1]; Entamoeba histolytica, 72 h): 5.2 ± 1.03 µM
IC50 ([2]; Chlorocebus sabaeus, Vero): 1500 ± 17.8 µM
IC50 ([3]; Giardia duodenalis, 72 h): 5.7 ± 0.78 µM
IC50 ([4]; Homo sapiens, HEp-2): 1460 ± 18.3 µM
IC50 ratio, Hep-2 and Vero cells versus the tested parasites ([4]; IC50 against Hep-2 and Vero cells over IC50 against Entamoeba and Giardia): around 270 times

Other lines, results leading:

IC50 ([1]; Entamoeba histolytica, 72 h): 18.2 ± 2.28 µM
IC50 ([3]; Giardia duodenalis, 72 h): 18.5 ± 1.43 µM
Compound: Cc1ncc([N+](=O)[O-])n1CCN [Compound 6, 2-(2-Methyl-5-1H-nitroimidazolyl)ethylamine, reference compound]

IC50 ([1]; Entamoeba histolytica, 72 h): 94.3 ± 9.76 µM
IC50 ([3]; Giardia duodenalis, 72 h): 88.4 ± 7.1 µM
Compound: O=C(O)/C=C/c1ccc([N+](=O)[O-])o1 [Compound 7, 5-Nitro-2-furylacrilic acid, reference compound]

solubility in DMSO-aqueous medium [5]: insolubility
Compound: O=C(/C=C\c1ccc([N+](=O)[O-])o1)N1CCN(c2ccnc3cc(Cl)ccc23)CC1 [Compound 10-b]
